Patent publication US6602889B1, “5-heteroaryl substituted indoles” (H. Lundbeck A.S., priority 1998, dated 2003)
Where a name gives a salt, the structure may show the parent alone. Read-outs that look alike come from different tables or passages of the source.

Legend:
[1] = target: T1, serotonin S2 (5-HT2A) receptors (Rattus norvegicus, UniProt P14842); assay: Inhibition of 3H-ketanserin binding to serotonin S2 (5-HT2A) receptors in rat cortex in vitro
T1 construct: Male Wistar (Mol:Wist) rats (125-250 g) are sacrificed and cortical tissue is dissected and weighed; from tissue; host or cells: rat cortex membranes (male Wistar rats)
T1 sequence (P14842 whole entry): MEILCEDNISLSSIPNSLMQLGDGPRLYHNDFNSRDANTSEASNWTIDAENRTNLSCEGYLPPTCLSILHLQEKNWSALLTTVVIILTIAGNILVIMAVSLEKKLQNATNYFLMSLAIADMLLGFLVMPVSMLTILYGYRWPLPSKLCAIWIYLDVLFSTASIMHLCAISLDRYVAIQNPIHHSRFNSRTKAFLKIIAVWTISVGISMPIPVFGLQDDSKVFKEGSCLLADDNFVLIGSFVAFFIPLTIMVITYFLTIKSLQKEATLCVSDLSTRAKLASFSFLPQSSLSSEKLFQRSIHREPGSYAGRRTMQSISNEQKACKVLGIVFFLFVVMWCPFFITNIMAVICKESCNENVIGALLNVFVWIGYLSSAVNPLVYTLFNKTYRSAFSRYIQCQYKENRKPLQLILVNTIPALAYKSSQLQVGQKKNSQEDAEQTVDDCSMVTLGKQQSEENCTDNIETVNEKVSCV
Description: Inhibition of ^3H-Ketanserin Binding to Serotonin S2 (5-HT2Å) Receptors in Rat Cortex in vitro
By this method the inhibition by drugs of the binding of ^3H-ketanserin (0.5 nM) to serotonin S2 (5-HT2) receptors in membranes from rat cortex is determined in vitro.
The tissue is homogenized (Ultra Turrax, 10 sec) in 10 mL of ice cold 50 mM tris buffer pH 7.7 (at 25° C.). The centrifuge glassware used in this step has been rinsed by sonication for 10 min in ethanol. The homogenate is centrifuged twice at 20,000 g for 10 min. at 4° C., with rehomogenization of the pellet in 10 mL icecold buffer. The final pellet is homogenized in 250 vol (w/v) icecold buffer.
Incubation tubes (96 deep well titer plate) kept on ice receive […] of ^3H ketanserin (final concentration 0.5 nM).
The binding experiment is initiated by addition of […] of tissue suspension (final tissue content corresponds to 4 mg original tissue) and by placing the 96 deep well titer plate in a 37° C. water bath. All tests are made in triplicates.
After incubation for 30 min, the samples are filtered on a Brandel harvester under vacuum (18 inch. Hg) through printed filter mat B (13 mm). Titerplate and filter are washed 2×10 sec. flow 50 L/h with ice cold buffer.
The printed filter mat with purred labelled tissue are dried for 1 h at 110° C. and hereafter placed in a sample bag with Meltilex B/HS 14.5 g and melted together on the T-tray heat seal.
Specific binding is obtained by subtracting the nonspecific binding in the presence of 1 mM mianserin.
(§1) For determination of the inhibition of binding, five concentrations of drugs covering 3 decades are used.
^3H-ketanserin=(ethylene-^3H)-ketanserin hydrochloride from New England Nuclear, specific activity 60-80 Ci/mmol.

α1-adrenoceptors = assay: Inhibition of 3H-prazosin binding to α1-adrenoceptors in rat brain in vitro; conditions: 3H-prazosin 0.25 nM, membranes from rat brain
Description: Method and results in Hyttel & Larsen, J. Neurochem.
The tissue is homogenized (Ultra Turrax, 10 se) in 10 mL of ice cold 50 mM tris buffer pH 7.7 (at 25° C.). The homogenate is centrifuged twice at 20,000 g for 10 min at 4° C. with rehomogenization of the pellet in 10 ml icecold buffer. The final pellet is homogenized in 250 vol (w/v) icecold buffer.
The binding experiment is initiated by addition of […] of tissue suspension (final tissue content corresponds to 3 mg original tissue) and by placing the 96 deep well titer plate in a 25 ° C. water bath. All tests are made in triplicates. After incubation for 20 min, the samples are filtered on a Brandel harvester under vacuum (18 inch. Hg) through printed filtermat B (13 mm). Titerplates and filter are washed 1×10 sec flow 50 L/h with ice cold buffer.
The filter mat is dried for 1 h at 110° C. and then placed in a sample bag with Meltilex B/HS (14.5 g) and melted together on the T-Tray heat sealer.
as §1

dopamine D2 receptors = target: T2, dopamine D2 receptors (Rattus norvegicus, UniProt P61169); assay: Inhibition of 3H-spiperone binding to dopamine D2 receptors in rat corpus striatum in vitro
T2 construct: Male Wistar (Mol:Wistar) rats (125-250 g) are sacrificed and striatal tissue is dissected and weighed; from tissue; host or cells: rat corpus striatum membranes (male Wistar rats)
T2 sequence (P61169 whole entry): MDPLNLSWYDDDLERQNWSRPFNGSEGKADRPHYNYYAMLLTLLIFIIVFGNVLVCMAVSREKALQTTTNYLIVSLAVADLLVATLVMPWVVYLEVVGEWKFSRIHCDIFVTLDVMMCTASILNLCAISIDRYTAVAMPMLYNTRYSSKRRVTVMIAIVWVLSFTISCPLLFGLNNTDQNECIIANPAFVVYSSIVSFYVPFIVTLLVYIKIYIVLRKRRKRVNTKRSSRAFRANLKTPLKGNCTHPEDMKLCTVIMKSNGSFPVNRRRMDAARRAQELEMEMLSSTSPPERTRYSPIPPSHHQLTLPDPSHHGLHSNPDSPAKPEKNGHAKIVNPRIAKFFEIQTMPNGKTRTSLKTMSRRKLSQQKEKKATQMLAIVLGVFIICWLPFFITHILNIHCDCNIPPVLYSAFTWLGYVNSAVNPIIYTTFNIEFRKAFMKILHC
Description: Inhibition of ^3H-Spiperone Binding to Dopamine D2 Receptors in Rat Corpus Striatum in vitro
By this method, the inhibition by drugs of the binding of ^3H -spiperone (=^3H-spiro-peridol) (0.5 nM) to dopamine D-2 receptors in membranes from rat corpus striatum is determined in vitro. […] Pharmacol. Toxicol. […] This is a test for dopamine D2 receptor binding affinity in vitro.
The tissue is homogenized (Ultra Turrax, 10 sec.) in 10 mL of ice-cold 50 mM K-phosphate buffer pH 7.4 (at 25° C.). The homogenate is centrifuged twice at 20,000 g for 10 min at 4° C. with rehomogenization of the pellet in 10 mL ice-cold buffer. The final pellet is homogenized in 1300 vol (w/v) ice-cold buffer.
The binding experiment is initiated by addition of 100 μl of ^3H-spiperone (final concentration 0.5 nM) and by placing the tubes in a 37° C. water bath. […] The tubes are rinsed with 5 mL ice-cold buffer which are then poured on the filters. Thereafter, the filters are washed with 2×5 mL of buffer. The filters are placed in counting vials and 4 mL of appropriate scintillation fluid (e.g. Picofluor ™15) are added. After shaking for 1 h and storage for 2 hrs in the dark, the content of radioactivity is determined by liquid scintillation counting. Specific binding is obtained by subtracting the nonspecific binding in the presence of 10 μM of 6,7-ADTN.
For determination of the inhibition of binding, five concentrations of drugs covering 3 orders of magnitude are used.
England, specific activity 15-25 Ci/mmol.

[2] = 3H-ketanserin 0.5 nM, membranes from rat cortex, read-out: IC50 values in nM, 5-HT2A
[3] = 3H-spiperone 0.5 nM, membranes from rat corpus striatum, read-out: IC50 values in nM, D2

Row | Compound | melting point [°C] | IC50 [1, 2] [nM] | IC50 (α1-adrenoceptors) [nM] | IC50 (dopamine D2 receptors; [3]) [nM] | IC50 [1] [nM] | IC50 (dopamine D2 receptors) [nM]
1 | Cn1nnnc1Cc1ccc2c(c1)c(C1CCN(CCN3CCNC3=O)CC1)cn2-c1ccc(F)cc1 (as salt: fumarate) [Compound 23c, 1-[2-[4-[(-(4-fluorophenyl)-5-[(1-methyltetrazol-5-yl)methyl]-1H-indol-3-yl]-1-piperidinyl]ethyl]-2-imidazolidinone 2.5 fumarate] | 169 to 171 |  |  |  |  | 
2 | Cn1nnc(-c2ccc3c(c2)c(C2=CCN(CCN4CCNC4=O)CC2)cn3-c2ccncc2)n1 [Compound 5a, 1-[2-[4-[5-(2-Methyltetrazol-5-yl)-1-(4-pyridyl)-1H-indol-3-yl]-1,2,3,6-tetrahydro-1-pyridinyl]ethyl]-2-imidazolidinone] | 177 to 178 | > 100 | 12 | > 100 |  | 
3 | Cn1nnc(-c2ccc3c(c2)c(C2CCN(CCN4CCNC4=O)CC2)cn3-c2ccncc2)n1 [Compound 6a, 1-[2-[4-[5-(2-Methyltetrazol-5-yl)-1-(4-pyridyl)-1H-indol-3-yl]-1-piperidinyl]ethyl]-2-imidazolidinone] | 204 to 206 | > 100 | 18 | > 100 |  | 
4 | Cn1nnc(CCN2CC=C(c3cn(-c4ccc(F)cc4)c4ccc(-c5nnn(C)n5)cc34)CC2)n1 [Compound 17a, 1-(4-Fluorophenyl)-5-(2-methyltetrazol-5-yl)-3-[1-[2-(2-methyltetrazo-5-yl)ethyl]-1,2,3,6-tetrahydropyridin-4-yl]-1H-indole] |  | 70 | 4 | 20 |  | 
5 | Cn1nnc(-c2ccc3c(c2)c(C2=CCN(CCc4nnnn4C)CC2)cn3-c2ccc(F)cc2)n1 [Compound 17b, 1-(4-Fluorophenyl)-5-(2-methyltetrazol-5-yl)-3-[1-[2-(1-methyltetrazol-5-yl)ethyl]-1,2,3,6-tetrahydropyridin-4-yl]-1H-indole, fumarate] |  | 450 | 4.9 | 97 |  | 
6 | CN1CC=C(c2cn(-c3ccc(F)cc3)c3ccc(-c4nnn(C)n4)cc23)CC1 [Compound 21b] | 142 to 144 |  | 9.4 |  | > 100 | 14
7 | Cn1nnc(-c2ccc3c(c2)c(C2=CCN(CCN4CCNC4=O)CC2)cn3-c2ccc(F)cc2)n1 [Compound 22a, 1-[2-[4-[1-(4-Fluorophenyl)-5-(2-methyltetrazol-5-yl)-1H-indol-3-yl]-1,2,3,6-tetrahydropyridin-1-yl]ethyl]-2-imidazolidinone] |  | 210 | 1.5 | 37 |  | 
8 | Cn1nnnc1-c1ccc2c(c1)c(C1=CCN(CCN3CCNC3=O)CC1)cn2-c1ccc(F)cc1 [Compound 22b, 1-[2-[4-[1-(4-fluorophenyl)-5-(1-methyltetrazol-5-yl)-1H-indol-3-yl]-1,2,3,6-tetrahydropyridin-1-yl]ethyl]-2-imidazolidinone] | 198 to 200 | 38 | 0.75 | 4.7 |  | 
9 | CCn1nnc(-c2ccc3c(c2)c(C2=CCN(CCN4CCNC4=O)CC2)cn3-c2ccc(F)cc2)n1 [Compound 22c] | 179 to 181 | > 100 | 7.8 | 110 |  | 
10 | Cn1nnnc1Cc1ccc2c(c1)c(C1=CCN(CCN3CCNC3=O)CC1)cn2-c1ccc(F)cc1 [Compound 22d, 1-[2-[4-[1-(4-fluorophenyl)-5-[(1-methyltetrazol-5-yl)methyl]-1H-indol-3-yl]-1,2,3,6-tetrahydropyridin-1-yl]ethyl]-2-imidazolidinone] | 174 to 176 | 18 | 0.72 | 5 |  | 
11 | Cn1nnc(Cc2ccc3c(c2)c(C2=CCN(CCN4CCNC4=O)CC2)cn3-c2ccc(F)cc2)n1 [Compound 22e, 1-[2-[4-[1-(4-fluorophenyl)-5-[(2-methyltetrazol-5-yl)methyl]-1H-indol-3-yl]-1,2,3,6-tetrahydropyridin-1-yl]ethyl]-2-imidazolidinone] | 129 to 131 | 5 | 1.5 | 8.6 |  | 
12 | Cn1ncc(-c2ccc3c(c2)c(C2=CCN(CCN4CCNC4=O)CC2)cn3-c2ccc(F)cc2)n1 [Compound 22g, 1-[2-[4-[1-(4-fluorophenyl)-5-(2-methyltriazol-4-yl)-1H-indol-3-yl]-1,2,3,6-tetrahydropyridin-1-yl]ethyl]-2-imidazolidinone] | 175 to 177 | 94 |  | 28 |  | 
13 | CCn1ncc(-c2ccc3c(c2)c(C2=CCN(CCN4CCNC4=O)CC2)cn3-c2ccc(F)cc2)n1 [Compound 22i, 1-[2-[4-[5-(2-ethyltriazol-4-yl)-1-(4-fluorophenyl)-1H-indol-3-yl]-1,2,3,6-tetrahydropyridin-1-yl]ethyl]-2-imidazolidinone] | 143 to 145 | 22 |  | 51 |  | 
14 | CCn1nnc(-c2ccc3c(c2)c(C2CCN(CCN4CCNC4=O)CC2)cn3-c2ccc(F)cc2)n1.Cl.Cl [Compound 23a, 1-[2-[4-[5-(2-ethyltetrazol-5-yl)-1-(4-fluorophenyl)-1H-indol-3-yl]-1-piperidinyl]ethyl]-2-imidazolidinone dihydrochloride] | 172 to 174 | 53 | 6.1 | > 100 |  | 
15 | CN1CCC(c2cn(-c3ccc(F)cc3)c3ccc(-c4nnn(C)n4)cc23)CC1 [Compound 23b, 1-(4-fluorophenyl)-3-(1-methyl-4-piperidinyl)-5-(2-methyltetrazol-5-yl)-1H-indole] |  | > 100 | 7.1 | > 100 |  | 
16 | Cn1nnnc1Cc1ccc2c(c1)c(C1CCN(CCN3CCNC3=O)CC1)cn2-c1ccc(F)cc1 [Compound 23c, 1-[2-[4-[(-(4-fluorophenyl)-5-[(1-methyltetrazol-5-yl)methyl]-1H-indol-3-yl]-1-piperidinyl]ethyl]-2-imidazolidinone 2.5 fumarate] |  | 8.3 | 0.5 | 3.7 |  | 
17 | COc1cc2nc(N3CCN(C(=O)c4ccco4)CC3)nc(N)c2cc1OC [Prazosin, prazosin, reference compound] |  |  | 0.36 | 11000 |  | 
18 | O=C1NCCN1CCN1CCC(c2cn(-c3ccc(F)cc3)c3ccc(Cl)cc23)CC1 [Sertindole, sertindole, reference compound] |  |  | 3.4 |  |  | 
